Source: PubChem BioAssay AID1117319 (Southern Research Institute, 2015)
Records with an inconclusive call do not appear.

Target: Virion infectivity factor (Human immunodeficiency virus type 1 group M subtype B (isolate BH10)) + Virion infectivity factor (Human immunodeficiency virus type 1 group M subtype B (isolate BRU/LAI)) + Virion infectivity factor (Human immunodeficiency virus type 1 group M subtype B (isolate PCV12)) + Virion infectivity factor (Human immunodeficiency virus type 1 group M subtype B (isolate HXB2)) + DNA dC->dU-editing enzyme APOBEC-3G (Homo sapiens) (UniProt P69720+P69721+P69722+P69723+Q9HC16)
Assay: inhibitors of Vif binding to APOBEC3G peptide, primary screen, biochemical, TR-FRET, GST-Vif 1-94, biotin-A3G peptide, dose response retest (AID 1117319);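 also: Vif residues 1-94 fused to GST binding biotinylated APOBEC3G peptide 110-148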

SMILES	IC50 [µM]
CCN(CC)c1ccc(C2NC(=O)NC(C)=C2C(=O)Nc2ccccc2)cc1 (stereo not given)	84.4
CCN(CC(=O)Nc1c(F)cccc1F)C(=O)c1cccc(-n2cccc2)c1	20.9
CN(C)c1ccc2cc(S(=O)(=O)O)cc(O)c2c1	10.2
CC(=O)N(C1=C(Cl)C(=O)c2ccccc2C1=O)c1ccc(C(=O)O)cc1	59.7
CCC(C(=O)OCC(=O)Nc1ccc(SC(F)F)cc1)c1ccccc1 (stereo not given)	83.2
CN=c1scc(-c2cccs2)n1/N=C/c1ccc(O)c(O)c1O	1.95
CCOC(=O)C(=O)NCc1ccc(/C=C2/N=C(C)C(C(=O)OCC)=C2O)o1	6.18
O=C(COC(=O)Cc1ccc(Cl)cc1)NCc1ccco1	7.37
O=C(N/N=C/c1cn(Cc2cccc(F)c2)c2ccccc12)c1cc(O)cc(O)c1	3.48
O=C1CCCC2=C1C(c1ccco1)Nc1ccc3ccccc3c12 (stereo not given)	4.21
Cc1ccc(OCCSc2nnc(-c3ccncc3)n2C)cc1	75.9
COc1ccc(NC(=O)CN(C)C(=O)c2cc(-c3ccco3)nc3ccccc23)cc1	4.87
C=CCn1c(O)c(C(CC)=Nc2ccc(N(C)C)cc2)c(=O)[nH]c1=O	57.6
O=C1CCCC(O)=C1N=Nc1ccc(S(=O)(=O)N2CCOCC2)cc1	6.66
O=C1/C(=C\c2ccco2)SC(=S)N1Cc1ccccc1	3.56
CNc1cccccc1=S	0.51
O=C(c1cc(-c2ccco2)on1)N1CCN(c2ccccc2)CC1	31.2
Oc1ccc(N=Cc2ccc(O)c(O)c2)cc1	0.99
COC(=O)CCC(=O)OC1(C)C(=O)C=C2C=C3CCCN3C=C2C1=O (stereo not given)	2.23
Cc1ccc(C)c(/C(O)=C2/C(=O)C(=O)N(CCN3CCOCC3)C2c2ccco2)c1 (stereo not given)	18.1
O=C(c1coc(=O)c(Br)c1)N1CCCc2ccccc21	24.3
COc1cccc(CNC(=O)CCNS(=O)(=O)c2cccs2)c1	1.44

SMILES	IC50 [µM]
CCCCCC#CCC#CCC#CCC#CCCCC(=O)O	0.86
O=C1OC(c2ccc(F)cc2)=C/C1=C\c1ccc([N+](=O)[O-])o1	8.61
COC/C=C/C1=CC2=CC(=O)C(C)(OC(=O)C3CCCC3)C(=O)C2=CO1 (stereo not given)	2.75
CC(=O)c1ccc2c(c1)C1C=CCC1C(C(=O)O)N2 (stereo not given)	0.6
Cc1cccc(-n2c(N)cc(=O)nc2SCC(=O)NC2CCCCC2)c1	93.7
CC[n+]1ccc(C)c2cc(S(=O)C(F)(F)F)ccc21 (stereo not given)	8.8
Cc1ccc(-c2nnn(CC(=O)N(c3ccc(F)cc3)C(C(=O)NC3CCCC3)c3ccco3)n2)o1 (stereo not given)	85.8
O=C1OC(c2ccc3ccccc3c2O)(c2ccc3ccccc3c2O)c2ccccc21	9.39
O=C(O)C(Cc1ccccc1)N1C(=O)/C(=C/C=C/c2ccco2)SC1=S (stereo not given)	2.11
O=c1oc2c3c4c(cc2s1)CCCN4CCC3	9.54
COc1cc(C(=O)NNC(=S)NCc2ccco2)cc(OC)c1OC	63.5
C=CCSC1=N/C(=C\C=C\c2ccco2)C(=O)S1	1.05
O=C(/C=C/c1cccs1)Nc1ccc(Br)cn1	10.2
COc1ccc(OC)c(NC(=O)CCN2CCC(C)CC2)c1	25.4
O=C(OCC(=O)N1CCN(C(=O)c2ccco2)CC1)c1cc(-c2ccco2)nc2ccccc12	3.95
O=C(CSc1nc(-c2ccco2)cc(C(F)(F)F)n1)N1CCc2ccccc2C1	22.8
Cc1ccc(/C=C/C(=O)Nc2ccc([N+](=O)[O-])c(NC(=O)/C=C/c3ccc(C)o3)c2)o1	1.49
Cn1cccc1/C=C1/C(=O)NC(=O)N(Cc2ccc(F)cc2)C1=O	8.76
O=c1[nH]c2ccccc2n2c(-c3ccccc3)nnc12	15.5
Cc1cc([N+](=O)[O-])cc2c1NC(c1ccccn1)C1CC=CC21 (stereo not given)	3.03
Cc1ccc(N2C(=O)NC(=O)/C(=C\C=C\c3ccco3)C2=O)cc1	8.48
O=C(O)CC(Cn1cnnn1)c1ccccc1 (stereo not given)	58.8

SMILES	IC50 [µM]
Cc1cccc(NC(=O)CSc2nnc(-c3ccco3)c(-c3ccco3)n2)c1C	4.3
Cc1cc(SCC(=O)N/N=C/c2ccc(O)c(O)c2O)c(C)cc1Br	13.3
COc1ccc(CCNC(=O)c2ccc3nc(-c4ccco4)c(-c4ccco4)nc3c2)cc1OC	0.45
Cc1ccccc1NC(=O)c1c(C)[nH]c(=S)c(C#N)c1-c1ccco1	18.7
O=C1CCCC(O)=C1N=Nc1ccc(C(=O)O)cc1	2.72
CCC(c1nnnn1C(C)(C)CC)N(CCCO)Cc1cc2cc(C)cc(C)c2[nH]c1=O (stereo not given)	0.49
N#CC1=C(Nc2ccccc2)SC=C(c2ccc(Br)cc2)N=C1N1CCOCC1	97.1
COc1cccc(C2NC(=O)NC(O)(C(F)(F)F)C2C(=O)c2cccnc2)c1OC (stereo not given)	47.1
Cc1ccc(C(=O)O)cc1-c1ccc(/C=C2/NC(=O)N(c3ccccc3)C2=O)o1	25.5
Cn1cccc1/C=C1\C(=O)NC(=O)N(Cc2ccco2)C1=O	9.46
O=C(Cc1cccs1)N/N=C/C=C/c1ccco1	3.68
O=C(COc1ccc(Cl)cc1)N1CCN(S(=O)(=O)c2ccc(Cl)cc2)CC1	50.7
CC(=O)c1ccc2c(c1)C1C=CCC1C(c1ccncc1)N2 (stereo not given)	3.16
CC1(C)CCCN(C(=O)c2coc(=O)c(Br)c2)C1	3.54
CS(=O)(=O)c1ccc(C(=O)Nc2nc(-c3ccco3)c(-c3ccco3)s2)cc1	22.1
CCN(CC)Cc1cc(Nc2c3ccccc3nc3c4ccccc4n(C)c23)cc(CN(CC)CC)c1O	10.9
COc1ccc2[nH]c3c4c(ccc3c2c1)C(=O)C=CC4=O	1.42
N#C/C(=C\c1ccc([N+](=O)[O-])o1)C(=O)Nc1ccc(F)cc1	7.59
O=C(CCCN1C(=O)/C(=C\c2ccco2)SC1=S)Nc1ccc2ccccc2c1	7.25
COc1ccc(NC2CS(=O)(=O)CC2NCc2ccco2)cc1 (stereo not given)	62.7
CCN1/C(=C/C=C/C=C/C=C/c2sc3ccccc3[n+]2CC)Sc2ccccc21	4.33
O=C1C=C(c2c(O)ccc3ccccc23)c2ccccc2C1=O	2.54

SMILES	IC50 [µM]
O=C(NC1CCC(C(=O)O)CC1)OCc1ccccc1 (stereo not given)	12.4
Oc1ccc(C2Nc3cccc4cccc(c34)N2)c(O)c1	17.5
O=C(c1cc2n(n1)C(C(F)(F)F)CC(c1ccco1)N2)N1CCc2ccccc2C1 (stereo not given)	33.2
CCC(C)NC(=O)Cc1cn(C)c2ccccc12 (stereo not given)	87.5
CC1CCCN(Cc2c(O)ccc3c2O/C(=C\c2ccco2)C3=O)C1 (stereo not given)	2.89
CN1CCc2c(sc3c2c(NCc2ccco2)nc2nnnn23)C1	16.2
CCc1c(C)sc(NC(=O)OC)c1C(=O)N1CCCCC1	42.7
CN1CCc2cccc3c2[C@H]1Cc1ccc(O)c(O)c1-3	0.89
Cc1ccc(N(CC(=O)NCCSCc2ccco2)S(=O)(=O)c2ccc(F)cc2)cc1	10.9
COc1ccccc1C1CC(=O)Nc2c1c(=O)n(C)c(=O)n2C (stereo not given)	70.4
CC(C)(CS(=O)(=O)[O-])NC(=O)CC[N+](C)(C)CCO	1.5
Cc1ccc(CCC(=O)Nc2ccc(S(N)(=O)=O)cc2)o1	57.4
Cc1cccc(-n2nc3c(c2NC(=O)c2ccc(Br)o2)CSC3)c1	63.6
N#Cc1ccccc1CN1C(=O)S/C(=C/c2cccn2-c2ccc(C(=O)O)cc2)C1=O	19.8
C=C(C)C(=O)Nc1cccc(C2=NOC3(C2)C[C@H](C(N)=O)N(C(=O)C(c2ccccc2)c2ccccc2)C3)c1 (stereo not given in full)	2.41
CCC(C)(C)n1nnnc1C(c1cc2cc(C)ccc2[nH]c1=O)N1CCCc2ccccc21 (stereo not given)	93.5
CCCCn1c(N)c(N(CCOC)C(=O)c2cc(-c3ccco3)nc3ccccc23)c(=O)[nH]c1=O	10.9
CC1Cc2ccccc2N1Cc1nc2cc(C(F)(F)F)ccc2c(=O)[nH]1 (stereo not given)	74.5
COc1ccc(-c2nc3oc4cc(OC)ccc4c(=O)c3c(=O)n2Cc2ccco2)cc1	98.7
CN(C(=O)COC(=O)c1cc(-c2ccco2)nc2ccccc12)C1CCS(=O)(=O)C1 (stereo not given)	1.44
Cc1cc(F)ccc1S(=O)(=O)Nc1ccccc1C(=O)Nc1ccc2[nH]c(=O)[nH]c2c1	78
COC(=O)C1=C(O)/C(=C\c2ccc(CNC(=O)C(=O)Nc3ccc(C)c(C)c3)o2)N=C1C	34.1

SMILES	IC50 [µM]
O=C(CCS(=O)(=O)c1ccc(Br)cc1)NCCc1ccccc1	28.9
Cc1cc(C)c(C(=O)/C=C/c2ccco2)c(=O)[nH]1	8.81
Cc1c2ccccc2nc2c(F)c(N(C)C)c(F)c(F)c12	15.7
O=[N+]([O-])c1cc2ccccc2c(O)c1O	22.2
CCCOc1ccc(N)cc1N	7.66
Cc1ccc2c(c1)c1ccc3c(c1n2C)C(=O)C=CC3=O	3.94
CCN1CCC(=NNC(=O)CC23CC4CC(CC(C4)C2)C3)CC1	97.5
Cc1noc(/C=C/c2ccco2)c1S(=O)(=O)N1CCC(C(=O)N2c3ccccc3CC2C)CC1 (stereo not given)	11.9
CCc1cc(C=NC2CCCCC2)c(O)s1	77.7
O=C(NCCS(=O)CCNC(=O)C(F)(F)F)C(F)(F)F	95
COC(=O)Cc1cc(=O)n(-c2nc3ccccc3[nH]2)[nH]1	21.6
O=C(CCCN1C(=O)/C(=C\c2ccco2)SC1=S)Nc1cccc2ccccc12	2.56
CN(C)S(=O)(=O)c1cccc(NC(=S)N/N=C/c2ccc(O)c(O)c2O)c1	1.88
COC(=O)CCC(=O)OC1(C)C(=O)C2=COC(c3ccc(OC)cc3)=CC2=C(Br)C1=O (stereo not given)	13.7
CSc1nc(N2CCOCC2)c2c3c(sc2n1)CCC3	42.1
COc1cccc(CNC(=O)Cn2c(=O)oc3ccccc32)c1OC	85.7
O=C1NN(c2ccc(Cl)cc2)C(=O)/C1=C\c1ccc(-c2cccc(C(=O)O)c2)o1	5.76
Cc1ccc[n+](-c2[nH]c(=O)sc2/C=N/NC(=O)c2ccccc2[O-])c1	51.4
COC1=C(OC)C(=O)C(Sc2ccc3ccccc3c2)=CC1=O	8.68
COc1cccc(N2C(=O)NC(=O)/C(=C/c3ccc([N+](=O)[O-])s3)C2=O)c1	7.18
NC(=O)C[C@@H]1N[C@]2(C(=O)Nc3ccccc32)[C@@H]2C(=O)N(c3cc(C(F)(F)F)ccc3Cl)C(=O)[C@H]12	55.5
O=C(O)c1ccc(Sc2nnnn2-c2ccccc2)c([N+](=O)[O-])c1	89.9
